This is an account of results in PubChem BioAssay AID1645868 (Buhrlage Lab, Dana-Farber Cancer Institute and Novartis …, 2021).

A word on the IC50: it is the concentration that inhibits the measured activity by half.

The assay concerns the target OTU domain-containing protein 3 (Homo sapiens) (UniProt Q5T2D3). The assay is described as follows: Validation of screening hits, potency titration, in vitro enzymatic, OTU domain-containing protein 3 DUB inhibitors (AID 1645868). Particulars: purified OTUD3, ubiquitin-rhodamine cleavage fluorescence, 2 h.

Active and inactive are the calls of the source.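 The calls were made as follows: active = maximal percent inhibition of the deubiquitinase OTUD3 of at least 30% across the tested doses; inactive = the rest.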

OTU domain-containing protein 3 (Homo sapiens), sequence (Q5T2D3 whole entry, looked up, the tested form may be a part): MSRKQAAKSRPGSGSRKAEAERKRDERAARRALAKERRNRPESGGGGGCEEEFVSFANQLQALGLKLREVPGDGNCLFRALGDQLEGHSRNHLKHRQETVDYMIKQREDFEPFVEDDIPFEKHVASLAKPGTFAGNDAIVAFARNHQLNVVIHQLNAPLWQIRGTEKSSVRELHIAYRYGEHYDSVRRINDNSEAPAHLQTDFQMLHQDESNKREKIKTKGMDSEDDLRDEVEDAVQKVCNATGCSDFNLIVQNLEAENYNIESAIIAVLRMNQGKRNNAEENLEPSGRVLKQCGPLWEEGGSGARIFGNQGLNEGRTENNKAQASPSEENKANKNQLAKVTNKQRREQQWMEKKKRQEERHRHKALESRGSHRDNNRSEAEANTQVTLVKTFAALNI

Take `CC(=O)c1sc(NC(=O)c2ccccc2-c2ccc(C(F)(F)F)cc2)nc1C`: the IC50 was 41.7 µM.
Under `Cc1cc(-c2nnc(SCC(=O)Nc3ccc(Br)c(C)c3)n2N)n[nH]1` stands 17.3 µM; under `Cc1nn(C)c2c1[C@@H](c1ccc(F)c(Br)c1)[C@H](NC(=O)c1ccccc1)C(=O)N2`, > 50 µM (inactive); under `Fc1cccc(Cn2cc(-c3noc(-c4ccncc4)n3)nn2)c1`, > 50 µM (inactive).
Under `Cc1sc2ncn3c(=O)n(CC(=O)Nc4ccc(F)c(Cl)c4)nc3c2c1C` stands > 50 µM (inactive); under `COc1ccc(CC(=O)Nc2ccc3nc(N4CCOCC4)cc(C)c3c2)cc1`, > 50 µM (inactive).
For `Cc1cc(NC(=O)COc2ccc3oc4ccccc4c3c2)no1`, the IC50 was > 50 µM (inactive).
Next, `Cc1cccc(C(=O)N2CCN3Cc4ccccc4N(C)CC3C2)c1` (stereo not drawn): > 50 µM (inactive); `COc1ccc(Nc2nc3c(S(=O)(=O)c4ccc(C)cc4)nnn3c3ccsc23)c(OC)c1`: 40.1 µM.
With `Cc1ccc2[nH]c3c(=O)n(CC4CCCO4)cnc3c2c1` (stereo not drawn), the IC50 was 44.9 µM.
In the case of `O=c1c2cnc3nc(-c4cccnc4)nn3c2ccn1CCc1ccccc1`, the IC50 was > 50 µM (inactive).
Under `COc1cccc(NC(=O)Cc2sc(Nc3cc(C)cc(C)c3)nc2O)c1` stands 22.4 µM; under `COCCCNC(=O)c1ccc(Cn2c(=O)c3ccccc3n(CC(=O)NC3CCCCC3)c2=O)cc1`, 32.3 µM.
Turning to `COc1ccccc1OCc1ccc(C(=O)Nc2ccc(F)cc2C)cc1`, the IC50 is > 50 µM (inactive).
Next, `CC(=O)Nc1ccc(Cc2nc(-c3ccc4c(c3)nc(C)c(=O)n4C3CCCC3)no2)cc1`: > 50 µM (inactive).
Next, `O=C1Nc2c(Cl)cc(Cl)cc2C1(O)c1sc(NC2CCCCC2)nc1-c1ccccc1` (stereo not drawn): 29.4 µM.
Under `O=C(COc1ccc(F)cc1)Nc1cc(F)c2nc(N3CCOCC3)ccc2c1` stands > 50 µM (inactive); under `COc1ccc(-c2[nH]c3ccccc3c2SCCNC(=O)c2ccc(S(=O)(=O)N3CCOCC3)cc2)cc1`, > 50 µM (inactive); under `CC(C)CC(NC(=O)c1ccc(Cl)cc1Cl)c1nc2ccccc2[nH]1` (stereo not drawn), > 50 µM (inactive).
Regarding `COc1ccc(OC)c(-c2cn3ccn(-c4ccc5c(c4)CCC5)c(=O)c3n2)c1`, the IC50 was > 50 µM (inactive).
Under `Cc1ccc(-c2nc(NC(=O)COc3ccc(Cl)cc3)no2)cc1` stands 20.6 µM.
On to `COc1ccc(C2/C(=C(\O)c3ccccc3)C(=O)C(=O)N2c2nc3ccc(F)cc3s2)cc1` (stereo not drawn), for which the IC50 is 33.8 µM.
Next, `CN(C(=O)CSc1nnc(-c2cc3ccccc3n2C)o1)c1ccccc1`: > 50 µM (inactive); `CCOc1ccc(CCNC(=O)c2cccc3c2C(=O)N(CCOC)C3)cc1OCC`: > 50 µM (inactive).
Under `COc1ccc(NC(=O)COc2cc(CSc3ccccc3)ncc2OC)cc1` stands > 50 µM (inactive); under `COc1ccc2nc(-c3ccc(NC(=O)c4cccc(OC)c4OC)cc3)cn2n1`, > 50 µM (inactive).
Consider `COc1ccc(-n2ccc(=O)c(-c3nc(-c4ccccc4F)no3)n2)cc1OC`, for which the IC50 was > 50 µM (inactive).
Under `COc1ccc(OC)c(NC(=O)CS(=O)(=O)c2cn(CC(=O)N3CCC(C)CC3)c3ccccc23)c1` stands 33.8 µM; under `CSc1cccc(NC(=O)CNC(=O)c2cc3ccccc3o2)c1`, > 50 µM (inactive).
For `O=C(CSc1nnc(-c2ccncc2)n1Cc1ccccc1)c1ccc2[nH]c(O)cc2c1`, the IC50 is > 50 µM (inactive).
Under `CCCC[C@@H](C)/C=C(C)/C=C(\C)C(=O)NC1=C[C@](O)(/C=C/C=C/C=C/C(=O)NC2=C(O)CCC2=O)[C@@H]2O[C@@H]2C1=O` stands 3.28 µM; under `CCCc1nc2sc3c(NCCc4ccc(OC)c(OC)c4)ncnc3c2c2c1CCC2`, > 50 µM (inactive); under `COc1c2c(cc3cc(O)c4c(=O)cc(C)oc4c13)CCC2=O`, > 50 µM (inactive).
